# Source: patent publication US5952310A, “Glycopeptide hexapeptides” (priority 1998, dated 1999)
# Key:
# [1] = system: Enterococcus faecium and faecalis (SENSITIVE); experiment: MIC, standard broth micro-dilution assay, sensitive enterococci; type: cell-based; details: geometric mean of 4-6 isolates
# [2] = system: Staphylococcus aureus 489; experiment: MIC, standard broth micro-dilution assay, SA489; type: cell-based
# [3] = system: Staphylococcus aureus 447; experiment: MIC, standard broth micro-dilution assay, SA447; type: cell-based
# [4] = system: Staphylococcus haemolyticus 105; experiment: MIC, standard broth micro-dilution assay, SH 105; type: cell-based
# [5] = system: Staphylococcus haemolyticus 415; experiment: MIC, standard broth micro-dilution assay, SH 415; type: cell-based
# [6] = system: Streptococcus pyogenes C203; experiment: MIC, standard broth micro-dilution assay, SPY C203; type: cell-based
# [7] = system: Enterococcus faecium and faecalis (RESISTANT); details: geometric mean of 4-6 isolates
# Experimental: (§1) The minimal inhibitory concentrations (MICs) were determined using a standard broth micro-dilution assay.
# [8] = system: Staphylococcus aureus 446
# Experimental: as §1
# [9] = system: Staphylococcus epidermidis 270
# [10] = system: Streptococcus pneumoniae P1
# Experimental: as §1
smiles,measurement,setting,value
"CC1OC(OC2c3ccc(c(Cl)c3)Oc3cc4cc(c3OC3OC(CO)C(O)C(O)C3OC3CC(C)(N)C(O)C(C)O3)Oc3ccc(cc3Cl)C(O)C(N)C(=O)NC(CC(N)=O)C(=O)NC4C(=O)NC3C(=O)NC2C(=O)NC(C(=O)O)c2cc(O)cc(O)c2-c2cc3ccc2O)CC(C)(N)C1O (stereo not drawn) [Example 1, DESLEUCYL-A82846B]",Minimal Inhibitory Concentration (MIC) Sensitive,[1],> 128
same,Minimal Inhibitory Concentration (MIC) SA 489,[2],32
same,Minimal Inhibitory Concentration (MIC) SA 447,[3],64
same,Minimal Inhibitory Concentration (MIC) SH 105,[4],> 64
same,Minimal Inhibitory Concentration (MIC) SH 415,[5],> 64
same,Minimal Inhibitory Concentration (MIC) SPY C203,[6],4
same,Minimal Inhibitory Concentration (MIC) Resistant,[7],> 128
same,Minimal Inhibitory Concentration (MIC) SA 446,[8],64
same,Minimal Inhibitory Concentration (MIC) SE 270,[9],64
"CC1OC(OC2c3ccc(c(Cl)c3)Oc3cc4cc(c3OC3OC(CO)C(O)C(O)C3OC3CC(C)(NCc5ccc(Cl)cc5)C(O)C(C)O3)Oc3ccc(cc3Cl)C(O)C(N)C(=O)NC(CC(N)=O)C(=O)NC4C(=O)NC3C(=O)NC2C(=O)NC(C(=O)O)c2cc(O)cc(O)c2-c2cc3ccc2O)CC(C)(N)C1O (stereo not drawn) [Example 2, N^DISACC -(p-CHLOROBENZYL)-DESLEUCYL-A82846B]",Minimal Inhibitory Concentration (MIC) Sensitive,[1],5.2
same,Minimal Inhibitory Concentration (MIC) SA 489,[2],0.5
same,Minimal Inhibitory Concentration (MIC) SA 447,[3],2
same,Minimal Inhibitory Concentration (MIC) SH 105,[4],2
same,Minimal Inhibitory Concentration (MIC) SH 415,[5],4
same,Minimal Inhibitory Concentration (MIC) SPY C203,[6],≤ 0.06
same,Minimal Inhibitory Concentration (MIC) Resistant,[7],> 81
same,Minimal Inhibitory Concentration (MIC) SA 446,[8],4
same,Minimal Inhibitory Concentration (MIC) SE 270,[9],2
"CC1OC(OC2c3ccc(c(Cl)c3)Oc3cc4cc(c3OC3OC(CO)C(O)C(O)C3OC3CC(C)(NCc5ccc(Oc6ccccc6)cc5)C(O)C(C)O3)Oc3ccc(cc3Cl)C(O)C(N)C(=O)NC(CC(N)=O)C(=O)NC4C(=O)NC3C(=O)NC2C(=O)NC(C(=O)O)c2cc(O)cc(O)c2-c2cc3ccc2O)CC(C)(N)C1O (stereo not drawn) [Example 3, N^DISACC -(p-PHENOXYBENZYL)-DESLEUCYL-A82846B]",Minimal Inhibitory Concentration (MIC) Sensitive,[1],14
same,Minimal Inhibitory Concentration (MIC) SA 489,[2],1
same,Minimal Inhibitory Concentration (MIC) SA 447,[3],1
same,Minimal Inhibitory Concentration (MIC) SH 105,[4],2
same,Minimal Inhibitory Concentration (MIC) SH 415,[5],1
same,Minimal Inhibitory Concentration (MIC) SPY C203,[6],≤ 0.06
same,Minimal Inhibitory Concentration (MIC) Resistant,[7],45
same,Minimal Inhibitory Concentration (MIC) SA 446,[8],2
same,Minimal Inhibitory Concentration (MIC) SPN P1,[10],≤ .06
same,Minimal Inhibitory Concentration (MIC) SE 270,[9],0.5
"CC1OC(OC2c3ccc(c(Cl)c3)Oc3cc4cc(c3OC3OC(CO)C(O)C(O)C3OC3CC(C)(NCc5ccc(-c6ccccc6)cc5)C(O)C(C)O3)Oc3ccc(cc3Cl)C(O)C(N)C(=O)NC(CC(N)=O)C(=O)NC4C(=O)NC3C(=O)NC2C(=O)NC(C(=O)O)c2cc(O)cc(O)c2-c2cc3ccc2O)CC(C)(N)C1O (stereo not drawn) [Example 4, N^DISACC -(p-PHENYLBENZYL)-DESLEUCYL-A82846B]",Minimal Inhibitory Concentration (MIC) Sensitive,[1],3.4
same,Minimal Inhibitory Concentration (MIC) SA 489,[2],0.25
same,Minimal Inhibitory Concentration (MIC) SA 447,[3],1
same,Minimal Inhibitory Concentration (MIC) SH 105,[4],1
same,Minimal Inhibitory Concentration (MIC) SH 415,[5],1
same,Minimal Inhibitory Concentration (MIC) SPY C203,[6],≤ 0.06
same,Minimal Inhibitory Concentration (MIC) Resistant,[7],16
same,Minimal Inhibitory Concentration (MIC) SA 446,[8],2
same,Minimal Inhibitory Concentration (MIC) SPN P1,[10],0.125
same,Minimal Inhibitory Concentration (MIC) SE 270,[9],1
"CCCCc1ccc(CNC2(C)CC(OC3C(Oc4c5cc6cc4Oc4ccc(cc4Cl)C(OC4CC(C)(N)C(O)C(C)O4)C4NC(=O)C(NC(=O)C6NC(=O)C(CC(N)=O)NC(=O)C(N)C(O)c6ccc(c(Cl)c6)O5)c5ccc(O)c(c5)-c5c(O)cc(O)cc5C(C(=O)O)NC4=O)OC(CO)C(O)C3O)OC(C)C2O)cc1 (stereo not drawn) [Example 5, N^DISACC -(p-n-BUTYLBENZYL)-DESLEUCYL-A82846B]",Minimal Inhibitory Concentration (MIC) Sensitive,[1],9.2
same,Minimal Inhibitory Concentration (MIC) SA 489,[2],1
same,Minimal Inhibitory Concentration (MIC) SA 447,[3],2
same,Minimal Inhibitory Concentration (MIC) SH 105,[4],1
same,Minimal Inhibitory Concentration (MIC) SH 415,[5],2
same,Minimal Inhibitory Concentration (MIC) SPY C203,[6],0.125
same,Minimal Inhibitory Concentration (MIC) Resistant,[7],108
same,Minimal Inhibitory Concentration (MIC) SA 446,[8],1
same,Minimal Inhibitory Concentration (MIC) SPN P1,[10],0.25
same,Minimal Inhibitory Concentration (MIC) SE 270,[9],1
"CC1OC(OC2c3ccc(c(Cl)c3)Oc3cc4cc(c3OC3OC(CO)C(O)C(O)C3OC3CC(C)(NCc5ccc(-c6ccc(Cl)cc6)cc5)C(O)C(C)O3)Oc3ccc(cc3Cl)C(O)C(N)C(=O)NC(CC(N)=O)C(=O)NC4C(=O)NC3C(=O)NC2C(=O)NC(C(=O)O)c2cc(O)cc(O)c2-c2cc3ccc2O)CC(C)(N)C1O (stereo not drawn) [Example 6, N^DISACC -(p-(p-CHLOROPHENYL)-BENZYL)DESLEUCYL-A82846B]",Minimal Inhibitory Concentration (MIC) Sensitive,[1],2.6
same,Minimal Inhibitory Concentration (MIC) SA 489,[2],2
same,Minimal Inhibitory Concentration (MIC) SA 447,[3],1
same,Minimal Inhibitory Concentration (MIC) SH 105,[4],0.5
same,Minimal Inhibitory Concentration (MIC) SH 415,[5],1
same,Minimal Inhibitory Concentration (MIC) SPY C203,[6],≤ .06
same,Minimal Inhibitory Concentration (MIC) Resistant,[7],6.7
same,Minimal Inhibitory Concentration (MIC) SA 446,[8],2
same,Minimal Inhibitory Concentration (MIC) SPN P1,[10],0.25
same,Minimal Inhibitory Concentration (MIC) SE 270,[9],0.5
"CC1OC(OC2c3ccc(c(Cl)c3)Oc3cc4cc(c3OC3OC(CO)C(O)C(O)C3O)Oc3ccc(cc3Cl)C(O)C(N)C(=O)NC(CC(N)=O)C(=O)NC4C(=O)NC3C(=O)NC2C(=O)NC(C(=O)O)c2cc(O)cc(O)c2-c2cc3ccc2O)CC(C)(N)C1O (stereo not drawn) [Example 7, N^DISACC -DES-EPIVANCOAMINYL-DESLEUCYL-A82846B]",Minimal Inhibitory Concentration (MIC) Sensitive,[1],56
same,Minimal Inhibitory Concentration (MIC) SA 489,[2],8
same,Minimal Inhibitory Concentration (MIC) SA 447,[3],64
same,Minimal Inhibitory Concentration (MIC) SH 105,[4],64
same,Minimal Inhibitory Concentration (MIC) SH 415,[5],> 64
same,Minimal Inhibitory Concentration (MIC) SPY C203,[6],4
same,Minimal Inhibitory Concentration (MIC) Resistant,[7],> 128
same,Minimal Inhibitory Concentration (MIC) SA 446,[8],32
same,Minimal Inhibitory Concentration (MIC) SPN P1,[10],2
same,Minimal Inhibitory Concentration (MIC) SE 270,[9],> 64
"CC1OC(OC2c3ccc(c(Cl)c3)Oc3cc4cc(c3OC3OC(CO)C(O)C(O)C3OC3CC(C)(NCCCCCCCCc5ccccc5)C(O)C(C)O3)Oc3ccc(cc3Cl)C(O)C(N)C(=O)NC(CC(N)=O)C(=O)NC4C(=O)NC3C(=O)NC2C(=O)NC(C(=O)O)c2cc(O)cc(O)c2-c2cc3ccc2O)CC(C)(N)C1O (stereo not drawn) [Example 8, N^DISACC -(8-PHENYL-n-OCTYL)DESLEUCYL-A82846B]",Minimal Inhibitory Concentration (MIC) Sensitive,[1],0.76
same,Minimal Inhibitory Concentration (MIC) SA 489,[2],1
same,Minimal Inhibitory Concentration (MIC) SA 447,[3],2
same,Minimal Inhibitory Concentration (MIC) SH 105,[4],0.25
same,Minimal Inhibitory Concentration (MIC) SH 415,[5],2
same,Minimal Inhibitory Concentration (MIC) SPY C203,[6],0.125
same,Minimal Inhibitory Concentration (MIC) Resistant,[7],5.7
same,Minimal Inhibitory Concentration (MIC) SA 446,[8],4
same,Minimal Inhibitory Concentration (MIC) SPN P1,[10],0.125
same,Minimal Inhibitory Concentration (MIC) SE 270,[9],1
